Experimental findings from US20140094365A1, “SYNERGISTIC WEED CONTROL FROM APPLICATIONS OF AMINOCYCLOPYRACHLOR AND TRICLOPYR” (Dow AgroSciences LLC, priority 2012, published 2014) are described below.

Common to all, as to assay: Field trial, post-emergence foliar weed control
Holding throughout (type): in vivo

Assay [1] concerns common fiddleneck (Amsinckia intermedia, AMSIN). The text has this:
(§1) The (a) aminocyclopyrachlor or an agriculturally acceptable salt or ester thereof is mixed with or applied in combination with (b) triclopyr or an agriculturally acceptable salt or ester thereof in an amount sufficient to induce a synergistic herbicidal effect. […] As described in the Herbicide Handbook of the Weed Science Society of America, Ninth Edition, 2007, p. 429, “‘synergism’ [is] an interaction of two or more factors such that the effect when combined is greater than the predicted effect based on the response to each factor applied separately.” Synergistic in the herbicide context can mean that the use of (a) and (b) as defined above results in an increased weed control effect compared to the weed control effects that are possible with the use of (a) or (b) alone. In some embodiments, the damage or injury to the undesired vegetation caused by the compositions and methods disclosed herein is evaluated using a scale from 0% to 100%, when compared with the untreated control vegetation, wherein 0% indicates no damage to the undesired vegetation and 100% indicates complete destruction of the undesired vegetation. […] 22 (1967)
(§2) Field trials were conducted with applications made to established grassland with naturally occurring weed populations, or applications were made to bare ground with naturally occurring weed populations. The target plants were treated with post emergence foliar applications after they had reached at least 3-4 leaves or at least 2-5 inches in height. All treatments were applied using a randomized complete block trial design, with 3-4 replications per treatment.
(§3) Treatments consisted of aminocyclopyrachlor in acid form and triclopyr-butotyl, each in water and applied alone or in combination. Spray solutions were prepared using an appropriate amount of dilution to form a 2 liter (L) aqueous spray solution with active ingredients in single and two way combinations. Formulated compounds were applied to the plant material with a backpack sprayer equipped with 8003 or Turbojet nozzles calibrated to deliver 187 L/ha to 400 L/ha at a spray height of 18-20 inches (43-50 centimeters (cm)) above average plant canopy.
(§4) The treated plants were buckhorn plantain (Plantago lanceolata, PLALA), calvary clover (Medicago arabica, MEDAB), shepherd's purse (Capsella bursa-pastoris, CAPBP), common fiddleneck (Amsinckia intermedia, AMSIN), redmaids (Calandrinia ciliata, CLNCM), and broomweed (Sida acuta, SIDAC). The treated plots and control plots were rated blind at various intervals after application. Ratings were based on a scale of 0-100%, as discussed above, wherein 0% indicates no damage to the undesired vegetation and 100% indicates complete destruction of the undesired vegetation
(§5) Colby's equation was used to determine the herbicidal effects expected from the mixtures, as described above. The results were measured at 7 days, 14 days, 17 days, 24 days, 27 days, 60 days, and 72 days after the first application of the compositions. […] The herbicide tank mix combinations tested, application rates and ratios employed, plant species tested, and results are given below.

Assay [2] has as its system buckhorn plantain (Plantago lanceolata, PLALA).
Excerpt: as §1, §2, §3, §4, §5

Assay [3] has as its system redmaids (Calandrinia ciliata, CLNCM). The settings on record: 17 DAYS.
Excerpt: as §1, §2, §3, §4, §5

The test system of assay [4] is broomweed (Sida acuta, SIDAC).
Excerpt: as §1, §2, §3, §4, §5

Assay [5] deals with shepherd's purse (Capsella bursa-pastoris, CAPBP).
Excerpt: as §1, §2, §3, §4, §5

The subject of assay [6] is calvary clover (Medicago arabica, MEDAB).
Excerpt: as §1, §2, §3, §4, §5

Take `Nc1nc(C2CC2)nc(C(=O)O)c1Cl` [Aminocyclopyrachlor, 6-amino-5-chloro-2-cyclopropylpyrimidine-4-carboxylic acid]: the “Mean % weed control” value was 0% in assay [1] (17 DAYS, 35 g ae/ha alone); 0% in assay [1] (24 DAYS, 35 g ae/ha alone); 37.5% in assay [2] (14 DAYS, 18 g ae/ha alone); 40% in assay [2] (14 DAYS, 35 g ae/ha alone); 22.5% in assay [2] (27 DAYS, 18 g ae/ha alone); 35% in assay [2] (27 DAYS, 35 g ae/ha alone (aminocyclopyrachlor)). Also, the “Mean % weed control” value in assay [3] (35 g ae/ha alone) is listed as 16.67%; in assay [4] (60 DAYS, 150 g ae/ha alone), 53%; in assay [4] (72 DAYS, 150 g ae/ha alone) it was 60%; in assay [5] (17 DAYS, 18 g ae/ha alone), 23.33%; in assay [5] (24 DAYS, 18 g ae/ha alone) it was 20%; in assay [6] (7 DAYS, 18 g ae/ha alone) it was 20%. In addition, the “Mean % weed control” value in assay [6] (14 DAYS, 18 g ae/ha alone) was found to be 47.5%; in assay [6] (14 DAYS, 35 g ae/ha alone), 47.5%; in assay [6] (27 DAYS, 18 g ae/ha alone) it was 27.5%.

On to `CCCCOCCOC(=O)COc1nc(Cl)c(Cl)cc1Cl` [Triclopyr-butotyl], for which the “Mean % weed control” value is on record as 0% in assay [1] (17 DAYS, 70 g ae/ha alone); 0% in assay [1] (24 DAYS, 70 g ae/ha alone); 7.5% in assay [2] (14 DAYS, 70 g ae/ha alone); 2.5% in assay [2] (27 DAYS, 35 g ae/ha alone (triclopyr-butotyl)); 3.75% in assay [2] (27 DAYS, 70 g ae/ha alone); 20% in assay [3] (70 g ae/ha alone). The “Mean % weed control” value came to 23.33% in assay [3] (140 g ae/ha alone); 2% in assay [4] (60 DAYS, 360 g ae/ha alone); 10% in assay [4] (72 DAYS, 360 g ae/ha alone); 40% in assay [5] (17 DAYS, 35 g ae/ha alone); 46.67% in assay [5] (17 DAYS, 70 g ae/ha alone); 40% in assay [5] (24 DAYS, 35 g ae/ha alone). For the same compound, the “Mean % weed control” value in assay [5] (24 DAYS, 70 g ae/ha alone) is 58.33%; in assay [6] (7 DAYS, 70 g ae/ha alone), 13.75%; in assay [6] (14 DAYS, 70 g ae/ha alone), 10%; in assay [6] (27 DAYS, 35 g ae/ha alone), 2.5%; in assay [6] (27 DAYS, 70 g ae/ha alone), 5%.
